A value given as a limit tells only on which side of the number the result lay.

The target in the assay is T1, FLuc-C-HiBiT (Photinus pyralis, UniProt P08659).
T1 construct: firefly luciferase with C-terminal HiBiT tag, E. coli expressed
T1 sequence (P08659 whole entry, looked up): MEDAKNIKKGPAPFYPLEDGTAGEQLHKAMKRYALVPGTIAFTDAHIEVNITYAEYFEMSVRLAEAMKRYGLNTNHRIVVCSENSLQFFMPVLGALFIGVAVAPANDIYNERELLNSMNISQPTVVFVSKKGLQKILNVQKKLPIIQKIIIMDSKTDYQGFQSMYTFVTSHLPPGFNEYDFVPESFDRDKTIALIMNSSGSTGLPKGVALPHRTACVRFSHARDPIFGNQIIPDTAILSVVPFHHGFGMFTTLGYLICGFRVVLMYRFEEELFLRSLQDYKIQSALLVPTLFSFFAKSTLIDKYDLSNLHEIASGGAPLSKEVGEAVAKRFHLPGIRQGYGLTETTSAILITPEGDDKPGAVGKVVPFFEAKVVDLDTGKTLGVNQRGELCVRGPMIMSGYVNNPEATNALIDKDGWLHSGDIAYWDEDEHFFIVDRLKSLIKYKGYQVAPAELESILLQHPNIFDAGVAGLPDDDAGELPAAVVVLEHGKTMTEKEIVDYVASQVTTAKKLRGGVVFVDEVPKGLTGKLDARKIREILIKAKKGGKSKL
The experiment in a line: biochemical. The note with it: enzyme activity, 10 uM ATP; read-out: IC50 or SDR50 (mM) / FLuc E.
`Cc1cccc(OCC(=O)Nc2cccc(-c3nc4ccccc4s3)c2)c1` [NCGC00099366-01]: the IC50 was determined as 6.24 µM. Turning to `CCOc1ccc(Nc2nc(-c3ccccc3)no2)cc1` [NCGC00422297-01], the IC50 turned out to be 4.95 µM. `CCOc1ccc(C(=O)Nc2ccc(-c3nc4ccccc4s3)cc2)cc1[N+](=O)[O-]` [NCGC00188053-01]: the IC50 was above 30 µM. For `C=CCNC(=O)c1cccc2c(C)nnn12` [NCGC00477166-01], the IC50 is above 30 µM. In the case of `CC(=O)Nc1cccc(-c2cccc(CCOc3cnc4c(ccn4CC(=O)O)c3)c2)c1` [NCGC00418203-01], the IC50 amounted to 16.1 µM. `COc1ccc(CN2C[C@H](O)C[C@H]2c2nc(-c3ccc(OC)cc3)no2)cc1` [NCGC00400669-01]: the IC50 was found to be 14.3 µM.

On to `COc1ccc(-c2ccc3ncc(Nc4cc(F)cc(N5CCOCC5)c4)n3n2)cc1OC` [NCGC00412497-01], for which the IC50 turned out to be 11.1 µM. For the compound `CCN(CC)[S+](=O)([O-])c1ccc2nc(NC(=O)c3cccnc3)sc2c1` [NCGC00134045-01], the IC50 was determined as 12.4 µM.

Consider `COc1ccc(CN2CCNc3cc(Nc4ccccc4)ncc3C2)cn1` [NCGC00411080-01], for which the IC50 was 18 µM. Consider `CN1c2cc(C(=O)Nc3cc(F)ccc3F)ccc2C(=O)N2CCCCCC21` (stereo not shown) [NCGC00452248-01], for which the IC50 amounted to 12.4 µM.

Take `COc1ccc(CNC(=O)Nc2cccc(-c3ccc(N4CCOCC4)nn3)c2)cc1` [NCGC00427608-01]: the IC50 came out at 1.97 µM. `O=C(Nc1ccc(F)cc1)Nc1cccc(-c2ccc(N3CCOCC3)nn2)c1` [NCGC00427578-01]: the IC50 stood at 1.97 µM. In the case of `Nc1ccc(C(=O)N2CCCn3nc(C(=O)Nc4ccccc4)cc3C2)cn1` [NCGC00432306-01], the IC50 was 11.1 µM.

For the compound `CCC(=O)Nc1ccc2nnc(-c3ccc(C(=O)Nc4ccc5c(c4)OCCO5)cc3)n2c1` [NCGC00429833-01], the IC50 came to 8.81 µM. In the case of `CCC(CC)C(=O)Nc1cccc(-c2nc3ccccc3s2)c1` [NCGC00119163-01] it was 15.7 µM. Turning to `COc1cc2c(cc1-c1ccc(CO)cc1)NC(=O)C21CCN(C)CC1` [NCGC00416803-01], the IC50 worked out at 20.2 µM. As to `CCOC(=O)c1ccc(NC2SC(=O)N(Cc3cccc(C(=O)O)c3)C2=O)cc1` (stereo not shown) [NCGC00099894-01], the IC50 turned out to be 12.4 µM. With `CN1CCNc2cc(Nc3ccc(F)c(Cl)c3)ncc2C1` [NCGC00411263-01], the IC50 worked out at 12.8 µM. In the case of `CCc1ccc2oc(-c3cccc(NC(=O)c4cc5ccccc5o4)c3)nc2c1` [NCGC00098909-01], the IC50 turned out to be 12.4 µM.

Regarding `CCCC(=O)Nc1cnc(-c2ccc(C)cc2)nc1` [NCGC00432897-01], the IC50 amounted to 3.51 µM. For the compound `CCCCOc1ccc(C(=O)Nc2ccc(-c3nc4ccccc4s3)cc2C)cc1` [NCGC00102367-01], the IC50 is above 30 µM.

For `Cc1nn(-c2ccc(C(C)C)cc2)c(C)c1[C@@H]1C=C[C@@H](NC(=S)NCC(C)C)C1` [NCGC00391239-01], the IC50 is 28.6 µM.

With `CCN(CC)CCOc1ccc(-c2nc3cc(Cl)ccc3s2)cc1` [NCGC00160568-01], the IC50 was found to be 25.4 µM.

In the case of `COc1ccc(-c2noc(-c3ccc(N4CCN(C)CC4)c([N+](=O)[O-])c3)n2)cc1` [NCGC00119282-01], the IC50 turned out to be 15.7 µM. Take `Cn1nc(-c2ccc3c(c2)OCCO3)nc1N1CCCCC1` [NCGC00447616-01]: the IC50 worked out at 9.89 µM. Regarding `c1ccc(-c2ccnc(NCCc3c[nH]c4ccccc34)n2)nc1` [NCGC00446312-01], the IC50 is 19.7 µM. As to `O=C(Nc1ccccc1)c1nc2c(o1)CCN(Cc1ccccn1)CC2` [NCGC00413398-01], the IC50 was 18 µM. Regarding `CC(C)C(=O)Nc1cc(-c2nc3ccccc3s2)ccc1Cl` [NCGC00596190-01], the IC50 was above 30 µM. In the case of `Cc1ncccc1C(=O)N1CCC(Oc2ccc(-c3noc(-c4ccccc4)n3)cc2)C1` (stereo not shown) [NCGC00440997-01] it was 11.1 µM; in that of `O=C1c2cnc(-c3ccc(Cl)cc3)nc2OCCN1CC1CC1` [NCGC00413489-01], 4.04 µM; in that of `CN(C1CCc2ccccc2C1)[S+](=O)([O-])c1cccs1` (stereo not shown) [NCGC00480121-01], above 30 µM. As for `COc1ccc(-c2nc3ccccc3s2)cc1NC(=O)COc1ccc(C)cc1` [NCGC00103030-01], the IC50 was above 30 µM. For `COc1ccc(CN(C(=O)c2cc3ccccc3oc2=O)C2CC[S+](=O)([O-])C2)cc1OC` (stereo not shown) [NCGC00100996-01], the IC50 was above 30 µM. Consider `OCCN1CCN(c2nc(N3CCCCC3)c3cnn(-c4ccc(Cl)cc4)c3n2)CC1` [NCGC00652352-01], for which the IC50 is above 30 µM. Turning to `CCOc1cccc(NC(=O)CSc2ncc(-c3ccccc3)[nH]2)c1` [NCGC00106968-01], the IC50 is above 30 µM. Turning to `c1c(-c2nc(C3CCOC3)no2)sc2c1CCCC2` (stereo not shown) [NCGC00443783-01], the IC50 amounted to 5.56 µM. Consider `Fc1ccc(-n2ncc3c(N4CCCCC4)nc(NN4CCOCC4)nc32)cc1` [NCGC00652353-01], for which the IC50 was above 30 µM. On to `O=C(Nc1nn(-c2cccc(F)c2)c2cccc(N3CCOCC3)c12)C1CCC1` [NCGC00440498-01], for which the IC50 turned out to be 11.1 µM. On to `CNC(=O)CCn1ncc2cc(OCc3ccccc3-c3cccc(NC(C)=O)c3)ccc21` [NCGC00418019-01], for which the IC50 was determined as 3.13 µM. In the case of `Cc1ccc(-n2ncc3c(N(C)C)ncnc32)cc1Cl` [NCGC00139189-01] it was 2.21 µM. For the compound `CC(=O)NC1(C)CCN(Cc2cccc(-c3ccc4c(ccn4C)c3)c2)C1` (stereo not shown) [NCGC00410415-01], the IC50 is 10.1 µM. Turning to `O=C(O)c1cccc(-c2noc(-c3cc([N+](=O)[O-])cc([N+](=O)[O-])c3)n2)c1` [NCGC00250195-01], the IC50 came to 3.13 µM.

Take `O=C1CC(c2ccccc2)N(C(=O)CNC(=O)Nc2ccc3c(c2)OCCO3)CCCCCN1` (stereo not shown) [NCGC00465553-01]: the IC50 turned out to be 17.6 µM. The value for `O=C(O)c1cccc(-c2noc(-c3ccccc3F)n2)c1` [PTC124] was 0.00154 µM; that for `O=C(Nc1ccc(-c2nc3ccccc3s2)c(O)c1)c1ccccc1` [NCGC00594711-01] was above 30 µM. `CC1CCCN(c2ncnc3c2cnn3-c2cccc(Cl)c2)C1` (stereo not shown) [NCGC00523592-01]: the IC50 was 0.785 µM. The value for `Cc1ccc(C)c(N2CCN(C(=O)C3CCN(c4nc(-c5ccc(C(C)C)cc5)no4)CC3)CC2)c1` [NCGC00134060-01] was 11.1 µM; that for `Cc1nc(C)c(C(=O)N2CCC(Oc3ccc(-c4noc(-c5ccccc5)n4)cc3)C2)s1` (stereo not shown) [NCGC00440995-01] was 11.1 µM; that for `CCOc1nccn2c(-c3ccc(CNC(=O)CNC(C)=O)cc3)cnc12` [NCGC00413921-01] was 18 µM. Turning to `COc1ccc(C)cc1NC(=O)Nc1cccc(-c2ccc(N3CCCCC3)nn2)c1` [NCGC00427638-01], the IC50 came to 1.11 µM.

As for `Cc1ccc(-c2nc(C)c(CCNC(=O)c3cccs3)s2)cc1` [NCGC00135815-01], the IC50 is 17.6 µM. As for `CC(CCc1ccc(O)cc1)N1CCOc2c(O)cc(-c3nc4ccccc4s3)cc2C1` (stereo not shown) [NCGC00240078-01], the IC50 is above 30 µM. For the compound `C[C@H](C(=O)N1CCCC1)C1CC[C@@]2(C)Cc3sc(-c4ccccc4)nc3[C@@H](C)[C@@H]2[C@H]1O` (stereo partly shown) [NCGC00401417-01], the IC50 worked out at 1.97 µM.

For `COc1cccc(OCc2nc3ccccc3n2Cc2ccccc2)c1` [NCGC00116123-01], the IC50 was above 30 µM.

With `O=C(Nc1ccc(-c2nc3ccccc3s2)cc1)c1c(F)c(F)c(F)c(F)c1F` [NCGC00598374-01], the IC50 was above 30 µM. The value for `COc1ccc(NC(=O)Nc2cccc(-c3ccc(N4CCCCC4)nn3)c2)c(OC)c1` [NCGC00427636-01] was 0.989 µM; that for `Cc1nn(-c2ccc(C(C)(C)C)cc2)c(C)c1[C@@H]1C=C[C@@H](NC(=O)c2ccco2)C1` [NCGC00394638-01] was 20.2 µM; that for `CC(=O)N1CCNc2cc(-c3cccc(F)c3)ncc2C1` [NCGC00411252-01] was 25.4 µM. As to `Fc1ccc2[nH]c([C@H]3CCN(Cc4ccccc4F)C3)nc2c1` [NCGC00391187-01], the IC50 was 14.3 µM. With `CSc1ccc(-c2nc3c([nH]2)CC(C)(C)CNC3=O)cc1` [NCGC00448280-01], the IC50 was 12.4 µM. Take `CN1CCc2nc3sc(C(=O)Nc4cccc(C#N)c4)c(N)c3cc2C1` [NCGC00103003-01]: the IC50 was above 30 µM. Consider `Cc1ccc(C(=O)Nc2cccc(-c3ccc(N4CCN(C)CC4)nn3)c2)cc1C` [NCGC00427552-01], for which the IC50 is 3.94 µM. As to `CC(C)(C)CN1CCNc2cc(Nc3cccnc3)ncc2C1` [NCGC00411255-01], the IC50 worked out at 6.4 µM.

Consider `COc1ccccc1NC(=O)Nc1cccc(-c2ccc(N3CCOCC3)nn2)c1` [NCGC00427580-01], for which the IC50 stood at 3.13 µM. In the case of `CCOC(=O)N1CCc2c(sc(NCc3cccs3)c2C(=O)Nc2ccc(OC)cc2OC)C1` [NCGC00140799-01] it was 3.13 µM. Turning to `CN(C)c1cccc(C(=O)Nc2ccc(-c3nc4ccccc4s3)cc2)c1` [NCGC00137782-01], the IC50 was 8.81 µM. For `Cc1cccc(-n2ncc3c(N4CCCC(C)C4)ncnc32)c1` (stereo not shown) [NCGC00138848-01], the IC50 came to 0.7 µM.

As for `Cc1ccc2oc([C@H]3CCN(Cc4cccs4)C3)nc2c1` [NCGC00397825-01], the IC50 was determined as 18 µM. The value for `COc1ccc(-c2nc3c4cnn(-c5ccccc5F)c4ncn3n2)cc1` [NCGC00115088-01] was 0.785 µM; that for `Cc1ccc(NC(=O)c2ncoc2-c2ccco2)cc1Cl` [NCGC00131543-01] was 6.24 µM. In the case of `Cc1ccc(-c2nc(C(=O)N(C)Cc3ccccc3)no2)cc1` [NCGC00447109-01] it was 12.4 µM. In the case of `Cc1ccc(-c2cc3c(=O)n(CCNC(=O)c4cccnc4)ccn3n2)c(C)c1` [NCGC00456961-01] it was 9.89 µM; in that of `Cc1ccc(NC(=O)Nc2ccc(C)n(CC(=O)NC3CCCC3)c2=O)cc1` [NCGC00430792-01], 0.7 µM; in that of `COc1cccc(Nc2cc3c(cn2)CN(Cc2cccnc2)CCN3)c1` [NCGC00411131-01], 10.1 µM. As to `Cc1cccc(CCNC(=O)c2sc3nc4n(c(=O)c3c2C)CCCC4)c1` [NCGC00121158-01], the IC50 is above 30 µM. As to `COc1ccc(-c2nnc(SC(C)C(=O)O)o2)cc1` (stereo not shown) [NCGC00103120-01], the IC50 was found to be 14 µM.
